Experimental data as given in the NIST ThermoML archive (doi:10.1021/je700339f).

Assay: xn = mol fraction of the nth substance listed
Conditions: 298 K, Liquid

ClCCCl [1,2-dichloroethane] + CC(=O)N(C)C
mass density [kg/m3]
Conditions	x2 = 0.0977	x2 = 0.2003	x2 = 0.2988	x2 = 0.4022	x2 = 0.4999	x2 = 0.6007	x2 = 0.7008	x2 = 0.7988	x2 = 0.8997
100 kPa	1210	1174.4	1141.3	1107.9	1077.4	1047.1	1018.1	990.5	963.2
500 kPa	1210.4	1174.8	1141.6	1108.2	1077.7	1047.4	1018.4	990.8	963.4
1000 kPa	1210.9	1175.2	1142.1	1108.7	1078	1047.7	1018.7	991.1	963.8
1500 kPa	1211.3	1175.6	1142.5	1109	1078.4	1048.1	1019.1	991.4	964.1
2000 kPa	1211.8	1176	1142.9	1109.5	1078.8	1048.4	1019.4	991.8	964.4
2500 kPa	1212.2	1176.5	1143.3	1109.9	1079.2	1048.8	1019.8	992	964.7
3000 kPa	1212.6	1176.9	1143.8	1110.2	1079.6	1049.1	1020.1	992.4	965
3500 kPa	1213.2	1177.3	1144.1	1110.6	1080	1049.5	1020.5	992.7	965.3
4000 kPa	1213.6	1177.7	1144.6	1111	1080.4	1049.8	1020.9	993.1	965.6
4500 kPa	1214	1178.2	1144.8	1111.5	1080.8	1050.1	1021.1	993.4	965.9
5000 kPa	1214.5	1178.6	1145.4	1111.8	1081.1	1050.5	1021.5	993.7	966.2
5500 kPa	1215	1179	1145.8	1112.2	1081.5	1050.8	1021.8	994	966.5
6000 kPa	1215.4	1179.5	1146.1	1112.6	1081.8	1051.2	1022.1	994.3	966.9
6500 kPa	1215.9	1179.9	1146.6	1113	1082.2	1051.6	1022.5	994.7	967.2
7000 kPa	1216.3	1180.3	1147	1113.4	1082.6	1052	1022.8	995	967.5
7500 kPa	1216.7	1180.7	1147.4	1113.8	1083	1052.3	1023.1	995.3	967.8
8000 kPa	1217.2	1181.2	1147.8	1114.1	1083.3	1052.7	1023.5	995.6	968.1
8500 kPa	1217.7	1181.5	1148.2	1114.5	1083.7	1053	1023.8	996	968.4
9000 kPa	1218.1	1182	1148.6	1114.9	1084	1053.4	1024.2	996.3	968.8
9500 kPa	1218.5	1182.4	1149	1115.3	1084.4	1053.8	1024.4	996.6	969
10000 kPa	1219	1182.9	1149.5	1115.7	–	–	–	–	–
